12 compounds from patent publication US9708314B2, “Heterocyclic amide compound” (NISSAN CHEMICAL INDUSTRIES, LTD., priority 2013, dated 2017) can be followed below.

Molecules are shown by their SMILES.

Format in all cases: in vivo
For data set [1], the system named is Scirpus juncoides. Nature of the data set: Test Example 1: herbicidal activity, application before weed generation in submerged conditions. To be noted: Seventeenth Table; for B: Scirpus juncoides (herbicidal effect grade): Application herbicide amount 320 g/ha. An outline of the steps: (§1)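 Rating, on a six-step scale from almost no effect (0) to almost completely withered (5), was made three weeks after pre-emergence treatment. Treatment was surface application to flooded pots at g/ha rates, with plants kept at 25° C. to 30° C.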

In data set [2] the test system is Echinochloa oryzacola Vasing. The description is as above. To be noted: Seventeenth Table; for A: Echinochloa oryzicola Vasing. (herbicidal effect grade): Application herbicide amount 320 g/ha. An outline of the steps: as §1
The test system of data set [3] is transplanted Oryza sativa. Description: Test Example 1: effect on crop, application before weed generation in submerged conditions. The following applies: Seventeenth Table; for a: transplanted Oryza sativa (effect on crop grade): Application herbicide amount 320 g/ha. The gist of the method:
as §1

Data set [4] relates to directly sowed Oryza sativa. Description: Test Example 3: effect on crop by application to foliage (Wagner pot, water depth 0.1-0.5 cm). The following applies: Nineteenth Table, application to foliage. An outline of the steps: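 Wagner pot foliar test: sow, grow 14 d (25–30 °C), spray diluted emulsion at set g/ha, score after 3 wk; 0 ≤5%, 5 ≥90% herbicidal ratio.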
Data set [5] relates to Scirpus juncoides. Description: Test Example 2: herbicidal activity, application during weed generation in submerged conditions. The following applies: Eighteenth Table. An outline of the steps: (§2)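 Post-emergence application under submerged conditions: water-diluted emulsion dosed onto the water surface (g/ha) when weeds reach one- to two-leaf stage. Soil flooded to 4 cm; greenhouse 25–30 °C. Herbicidal ratio graded in six classes, 0 (≤5%) to 5 (≥90%), at three weeks.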

Data set [6] deals with Echinochloa oryzacola Vasing. The description is as above. The following applies: Eighteenth Table. An outline of the steps: as §2
In data set [7] the test system is Monochoria vaginalis. Nature of the data set: Test Example 1: herbicidal activity, application before weed generation in submerged conditions. The following applies: Seventeenth Table; for C: Monochoria vaginalis (herbicidal effect grade): Application herbicide amount 320 g/ha; for C (Monochoria vaginalis) herbicidal ratio grade: application herbicide amount 320 g/ha. An outline of the steps:
as §1

The test system of data set [8] is Monochoria vaginalis. Nature of the data set: Test Example 2: herbicidal activity, application during weed generation in submerged conditions. The following applies: Eighteenth Table; application herbicide amount 320 g/ha. An outline of the steps: as §2
Setting [9] is: application herbicide amount 260 g/ha.
Where [10] appears, read: application herbicide amount 320 g/ha.

Regarding `Cn1nnnc1NC(=O)c1ccc(C(F)(F)F)n2c(C=O)nnc12` [2-109], the “B (Scirpus juncoides) herbicidal ratio grade” value in data set [1] (setting [9]) was 3 (Herbicidal ratio of 40% or more and less than 70%); in data set [5] (setting [9]), 1 (Herbicidal ratio of 5% or more and less than 20%). Further, the “A (Echinochloa oryzicola Vasing.) herbicidal ratio grade” value was 2 (Herbicidal ratio of 20% or more and less than 40%) in data set [2] (setting [9]); 1 (Herbicidal ratio of 5% or more and less than 20%) in data set [6] (setting [9]). For the same compound, in data set [3] (setting [9]), the “a (transplanted Oryza sativa) effect on crop grade” value is 0 (Herbicidal ratio of 5% or less (almost no effect)). The “b (effect on crop grade)” value in data set [4] (setting [9]) was 2 (Herbicidal ratio of 20% or more and less than 40%).

As for `CN(CCC#N)c1nnc2c(C(=O)Nc3nnnn3C)ccc(C(F)(F)F)n12` [2-095], the “C: Monochoria vaginalis (herbicidal effect grade)” value (“C: Monochoria vaginalis” below) in data set [7] was 5 (Herbicidal ratio of 90% or more (almost completely withered)). Besides, the “B: Scirpus juncoides (herbicidal effect grade)” value (“B: Scirpus juncoides” for short) in data set [1] was 5 (Herbicidal ratio of 90% or more (almost completely withered)). The “A: Echinochloa oryzicola Vasing. (herbicidal effect grade)” value in data set [2] is on record as 5 (Herbicidal ratio of 90% or more (almost completely withered)). Further, the “a: transplanted Oryza sativa (effect on crop grade)” value (shortened to “a: transplanted Oryza sativa”) in data set [3] was 5 (Herbicidal ratio of 90% or more (almost completely withered)). Moreover, in data set [8], the “C (Monochoria vaginalis) herbicidal ratio grade” value was 5 (Herbicidal ratio of 90% or more (almost completely withered)). Besides, the “B (Scirpus juncoides) herbicidal ratio grade” value in data set [5] (setting [10]) is 5 (Herbicidal ratio of 90% or more (almost completely withered)). Also, the “A (Echinochloa oryzicola Vasing.) herbicidal ratio grade” value in data set [6] (setting [10]) was 4 (Herbicidal ratio of 70% or more and less than 90%).

`O=C(Nc1nnco1)c1ccc(C(F)(F)F)n2c(SC3CCCC3)nnc12` [1-155]: the “C: Monochoria vaginalis” value in data set [7] is 3 (Herbicidal ratio of 40% or more and less than 70%). The “B: Scirpus juncoides” value in data set [1] is 4 (Herbicidal ratio of 70% or more and less than 90%). In data set [3], the “a: transplanted Oryza sativa” value is on record as 0 (Herbicidal ratio of 5% or less (almost no effect)). The “C (Monochoria vaginalis) herbicidal ratio grade” value in data set [8] was 0 (Herbicidal ratio of 5% or less (almost no effect)). Besides, in data set [5] (setting [10]), the “B (Scirpus juncoides) herbicidal ratio grade” value was 2 (Herbicidal ratio of 20% or more and less than 40%). In addition, in data set [6] (setting [10]), the “A (Echinochloa oryzicola Vasing.) herbicidal ratio grade” value is 1 (Herbicidal ratio of 5% or more and less than 20%).

With `CC(C)Nc1nnc2c(C(=O)Nc3nnnn3C)ccc(C(F)(F)F)n12` [2-066], in data set [7], the “C: Monochoria vaginalis” value is 4 (Herbicidal ratio of 70% or more and less than 90%). The “B: Scirpus juncoides” value in data set [1] was 5 (Herbicidal ratio of 90% or more (almost completely withered)). Further, the “A: Echinochloa oryzicola Vasing. (herbicidal effect grade)” value in data set [2] was 5 (Herbicidal ratio of 90% or more (almost completely withered)). The “a: transplanted Oryza sativa” value in data set [3] was 3 (Herbicidal ratio of 40% or more and less than 70%). Further, the “b (effect on crop grade)” value in data set [4] (setting [10]) is 3 (Herbicidal ratio of 40% or more and less than 70%). In addition, the “C (Monochoria vaginalis) herbicidal ratio grade” value in data set [8] was 3 (Herbicidal ratio of 40% or more and less than 70%). Moreover, the “A (Echinochloa oryzicola Vasing.) herbicidal ratio grade” value in data set [6] (setting [10]) is 3 (Herbicidal ratio of 40% or more and less than 70%).

Consider `COC(=O)Cn1nnnc1NC(=O)c1ccc(C(F)(F)F)n2c(C(C)C)nnc12` [2-046], for which the “C: Monochoria vaginalis” value in data set [7] is reported as 0 (Herbicidal ratio of 5% or less (almost no effect)). The “B: Scirpus juncoides” value in data set [1] was 0 (Herbicidal ratio of 5% or less (almost no effect)). Besides, in data set [2], the “A: Echinochloa oryzicola Vasing. (herbicidal effect grade)” value was 4 (Herbicidal ratio of 70% or more and less than 90%). Also, the “a: transplanted Oryza sativa” value in data set [3] was 0 (Herbicidal ratio of 5% or less (almost no effect)). Moreover, the “b (effect on crop grade)” value in data set [4] (setting [10]) was 0 (Herbicidal ratio of 5% or less (almost no effect)).

Take `CCCn1nnnc1NC(=O)c1ccc(C(F)(F)F)n2c(C(C)C)nnc12` [2-090]: in data set [7], the “C: Monochoria vaginalis” value is 5 (Herbicidal ratio of 90% or more (almost completely withered)). In addition, the “B: Scirpus juncoides” value in data set [1] was 5 (Herbicidal ratio of 90% or more (almost completely withered)). Besides, the “A: Echinochloa oryzicola Vasing. (herbicidal effect grade)” value in data set [2] is reported as 5 (Herbicidal ratio of 90% or more (almost completely withered)). Also, the “a: transplanted Oryza sativa” value in data set [3] is 4 (Herbicidal ratio of 70% or more and less than 90%). In addition, the “C (Monochoria vaginalis) herbicidal ratio grade” value in data set [8] was 4 (Herbicidal ratio of 70% or more and less than 90%). Moreover, the “B (Scirpus juncoides) herbicidal ratio grade” value in data set [5] (setting [10]) was 5 (Herbicidal ratio of 90% or more (almost completely withered)). Moreover, the “A (Echinochloa oryzicola Vasing.) herbicidal ratio grade” value in data set [6] (setting [10]) was 5 (Herbicidal ratio of 90% or more (almost completely withered)).

In the case of `Cn1nnnc1NC(=O)c1ccc(C(F)(F)F)n2c(CO)nnc12` [2-108], in data set [7], the “C (Monochoria vaginalis) herbicidal ratio grade” value was 2 (Herbicidal ratio of 20% or more and less than 40%). Further, the “B (Scirpus juncoides) herbicidal ratio grade” value was 3 (Herbicidal ratio of 40% or more and less than 70%) in data set [1] (setting [10]); 1 (Herbicidal ratio of 5% or more and less than 20%) in data set [5] (setting [10]). The “A (Echinochloa oryzicola Vasing.) herbicidal ratio grade” value is 4 (Herbicidal ratio of 70% or more and less than 90%) in data set [2] (setting [10]); 0 (Herbicidal ratio of 5% or less (almost no effect)) in data set [6] (setting [10]). In data set [3] (setting [10]), the “a (transplanted Oryza sativa) effect on crop grade” value is 0 (Herbicidal ratio of 5% or less (almost no effect)). Moreover, in data set [4] (setting [10]), the “b (effect on crop grade)” value was 4 (Herbicidal ratio of 70% or more and less than 90%).

With `COc1ccc(N(C)c2nnc3c(C(=O)Nc4nnco4)ccc(C(F)(F)F)n23)cc1` [1-171], the “C: Monochoria vaginalis” value in data set [7] was 4 (Herbicidal ratio of 70% or more and less than 90%). In data set [1], the “B: Scirpus juncoides” value is 4 (Herbicidal ratio of 70% or more and less than 90%). The “A: Echinochloa oryzicola Vasing. (herbicidal effect grade)” value in data set [2] is on record as 5 (Herbicidal ratio of 90% or more (almost completely withered)). In data set [3], the “a: transplanted Oryza sativa” value is 1 (Herbicidal ratio of 5% or more and less than 20%). In addition, the “b (effect on crop grade)” value in data set [4] (setting [10]) is 0 (Herbicidal ratio of 5% or less (almost no effect)). In addition, in data set [6] (setting [10]), the “A (Echinochloa oryzicola Vasing.) herbicidal ratio grade” value was 4 (Herbicidal ratio of 70% or more and less than 90%).

For the compound `Cc1nnc(NC(=O)c2ccc(C(F)(F)F)n3c(SC4CCCC4)nnc23)o1` [1-154], the “C: Monochoria vaginalis” value in data set [7] is 2 (Herbicidal ratio of 20% or more and less than 40%). The “B: Scirpus juncoides” value in data set [1] was 3 (Herbicidal ratio of 40% or more and less than 70%). The “a: transplanted Oryza sativa” value in data set [3] is 0 (Herbicidal ratio of 5% or less (almost no effect)). Further, in data set [8], the “C (Monochoria vaginalis) herbicidal ratio grade” value was 0 (Herbicidal ratio of 5% or less (almost no effect)). Further, the “B (Scirpus juncoides) herbicidal ratio grade” value in data set [5] (setting [10]) was 2 (Herbicidal ratio of 20% or more and less than 40%). Further, in data set [6] (setting [10]), the “A (Echinochloa oryzicola Vasing.) herbicidal ratio grade” value was 0 (Herbicidal ratio of 5% or less (almost no effect)).

As to `Cc1nnc(NC(=O)c2ccc(C(F)(F)F)n3nc(C(C)C)nc23)o1` [7-001], in data set [7], the “C (Monochoria vaginalis) herbicidal ratio grade” value was 4 (Herbicidal ratio of 70% or more and less than 90%). In addition, in data set [1] (setting [10]), the “B (Scirpus juncoides) herbicidal ratio grade” value is 2 (Herbicidal ratio of 20% or more and less than 40%). The “A (Echinochloa oryzicola Vasing.) herbicidal ratio grade” value in data set [2] (setting [10]) is 0 (Herbicidal ratio of 5% or less (almost no effect)). Also, the “a (transplanted Oryza sativa) effect on crop grade” value in data set [3] (setting [10]) is reported as 0 (Herbicidal ratio of 5% or less (almost no effect)).

Consider `Cc1nnc(NC(=O)c2ccc(C(F)(F)F)n3c(SCc4ccc(Cl)nc4)nnc23)o1` [1-156], for which the “C: Monochoria vaginalis” value in data set [7] is given as 0 (Herbicidal ratio of 5% or less (almost no effect)). Moreover, in data set [1], the “B: Scirpus juncoides” value is 2 (Herbicidal ratio of 20% or more and less than 40%). Also, the “a: transplanted Oryza sativa” value in data set [3] is on record as 0 (Herbicidal ratio of 5% or less (almost no effect)). Besides, the “C (Monochoria vaginalis) herbicidal ratio grade” value in data set [8] was 2 (Herbicidal ratio of 20% or more and less than 40%). The “B (Scirpus juncoides) herbicidal ratio grade” value in data set [5] (setting [10]) was 3 (Herbicidal ratio of 40% or more and less than 70%). Further, the “A (Echinochloa oryzicola Vasing.) herbicidal ratio grade” value in data set [6] (setting [10]) is 0 (Herbicidal ratio of 5% or less (almost no effect)).

Consider `O=C(Nc1nnco1)c1ccc(C(F)(F)F)n2c(SCc3ccc(Cl)nc3)nnc12` [1-157], for which, in data set [7], the “C: Monochoria vaginalis” value is 2 (Herbicidal ratio of 20% or more and less than 40%). The “B: Scirpus juncoides” value in data set [1] is 3 (Herbicidal ratio of 40% or more and less than 70%). Besides, in data set [3], the “a: transplanted Oryza sativa” value is 2 (Herbicidal ratio of 20% or more and less than 40%). For the same compound, the “C (Monochoria vaginalis) herbicidal ratio grade” value in data set [8] is recorded as 0 (Herbicidal ratio of 5% or less (almost no effect)). For the same compound, the “B (Scirpus juncoides) herbicidal ratio grade” value in data set [5] (setting [10]) is 1 (Herbicidal ratio of 5% or more and less than 20%). Also, the “A (Echinochloa oryzicola Vasing.) herbicidal ratio grade” value in data set [6] (setting [10]) is recorded as 0 (Herbicidal ratio of 5% or less (almost no effect)).
